From PubChem BioAssay AID2060492 (Molecular Pharmacology Branch, DTP, NCI, 2025)

Test system: 695427-040-R-J1-PDC complex spheroids, viability percent T/C
Assay: Anticancer human tumor 695427-040-R-J1-PDC patient-derived colon adenocarcinoma cell line growth inhibition [GQUAD]
Settings: for IC50: curve of first compound; for viability, T/C: stronger effect = lower value
Text: DNA G-quadruplex Stabilizer Agents in Combinations in Complex Spheroids
A high-throughput screen of multi-cell type tumor spheroids was designed to identify active combinations of DNA G-quadruplex stabilizer agents and targeted small molecules. Complex spheroids include a stromal component modeled by human endothelial cells (HUVEC) and fibroblasts modeled by human mesenchymal stem cells (MSCs). The concentration ranges selected for each drug and investigational agent were based upon clinically achievable concentrations if the clinical Cmax of the agent was known.
Compounds. The drugs and investigational agents: pidnarulex (CX-5461; NSC782164), APTO-253 (NSC789042), BRACO-19 (NSC847499), peposertib (NSC802822), ceralasertib (NSC780249), elimusertib (NSC800525), camonsertib (NSC841442), AZD-1390 (NSC803789), olaparib (NSC753686), talazoparib (NSC767125), ART-558 (NSC835418), sotorasib (NSC818433), MRTX-1133 (NSC836407), SN-38 (NSC673596), topotecan (NSC609699), etoposide (NSC141540), doxorubicin (NSC123127), gemcitabine (NSC613327), 5-fluorouracil (NSC19893), paclitaxel (NSC125973), vemurafenib (NSC761431), panobinostat (NSC761190), R-306465 (JNJ-16241199; NSC773264), adavosertib (NSC754352), TP-3654 (NSC805149), carboplatin (NSC241240), KSQ-4279 (NSC840948), and staurosporine (NSC755774) were obtained from the National Cancer Institute (NCI) Developmental Therapeutics Program Chemical Repository (34). The FDA-approved anticancer drug set is available from the NCI Developmental Therapeutics Program. […] The stock solutions were prepared in dimethyl sulfoxide (DMSO, Sigma-Aldrich, St. Louis, MO, cat. D2650) at 800-fold the tested concentration and stored at -70 degrees C prior to their use. All drugs and investigational agents were tested over a range starting from a high concentration at or near the clinical Cmax and decreasing in half-log increments. If the clinical Cmax for an agent had not been determined, the highest concentration tested was 10 microM.
2.3 Cell Culture. All cells were maintained in an incubator at 37 degrees C and 5% CO2 with 95% humidity. The PDC lines were cultured according to standard operating procedures established by the NCI PDMR. All PDCs were thawed and cultured in Matrigel-coated flasks prepared with a working solution of 1X Ham's F-12 nutrient mix, without supplementation (Invitrogen, cat. 11765054), 100 U/mL penicillin-streptomycin (Invitrogen, cat. 15140122), and 2.5% Matrigel (Corning Inc., cat. 354248) for the first three passages. The 857933-349-R-J2-PDC line was cultured in 6C/Colon 1B media, which includes advanced DMEM/F-12 (Thermo Fisher Scientific, cat. 12634028), 10 mM HEPES (Thermo Fisher Scientific, cat. 15630080), 1X GlutaMAX supplement (Thermo Fisher Scientific, cat. 35050061), 0.1 mg/mL primocin (InvivoGen, cat. ant-pm-2), 10% defined fetal bovine serum, heat inactivated (HyClone Laboratories Inc., cat. SH30070.03HI), 50% L-WRN conditioned media (ATCC, cat. CRL-3276), 1.25 mM N-Acetyl-L-cysteine (Sigma-Aldrich, cat. A9165), 10 mM nicotinamide (Sigma-Aldrich, cat. N0636), 1X B-27 supplement (Thermo Fisher Scientific, cat. 17504044), 1X N-2 supplement (Thermo Fisher Scientific, cat. 17502048), 10 microM Y-27632 dihydrochloride (Tocris Bioscience, cat. 1254), and 50 ng/mL human EGF recombinant protein (Thermo Fisher Scientific, cat. PHG0311). The 485176-168-R4-J1-PDC line was cultured in Panc media, which includes all 6C/Colon 1B media components plus 100 ng/mL human FGF-10 (Thermo Fisher Scientific, cat. 100-26), 500 nM SB-431542 (Selleckchem, cat. S1067), and gastrin (Tocris, cat. 3006).
[…]

[1] = second compound 0.0316 µM, first compound 0.0316 µM
[2] = second compound 0.0316 µM, first compound 0.316 µM
[3] = second compound 0.1 µM, first compound 0.0316 µM
[4] = second compound 0.1 µM, first compound 0.316 µM
[5] = second compound 0.316 µM, first compound 0.0316 µM
[6] = second compound 0.316 µM, first compound 0.316 µM
[7] = second compound 1 µM, first compound 0.0316 µM
[8] = second compound 1 µM, first compound 0.316 µM
[9] = second compound 3.16 µM, first compound 0.0316 µM
[10] = second compound 3.16 µM, first compound 0.316 µM
[11] = second compound 10 µM, first compound 0.0316 µM
[12] = second compound 10 µM, first compound 0.316 µM
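Note: spheroids exposed to compounds for seven days before readout.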

`Cc1cccc(N(C)C(=O)C2C(O)CCN2c2nc(C)cc(C(F)(F)F)c2C#N)c1` (centres undefined) + CN(C)c1ccc(Nc2c3ccc(NC(=O)CCN4CCCC4)cc3nc3cc(NC(=O)CCN4CCCC4)ccc23)cc1 gave an IC50 (second compound 0.0316 µM) of over 10 µM, an IC50 (second compound 0.1 µM) of over 10 µM and an IC50 (second compound 0.316 µM) of over 10 µM. The IC50 (second compound 1 µM) was over 10 µM, the IC50 (second compound 3.16 µM) was over 10 µM and the IC50 (second compound 10 µM) was over 10 µM. For the same compound, the viability, T/C [1] was 111%, the viability, T/C (second compound 0.0316 µM, first compound 0.1 µM) was 103% and the viability, T/C [2] was 106%. It also gave a viability, T/C (second compound 0.0316 µM, first compound 1 µM) of 99.9%, a viability, T/C (second compound 0.0316 µM, first compound 3.16 µM) of 107% and a viability, T/C (second compound 0.0316 µM, first compound 10 µM) of 90.3%. The viability, T/C [3] was 110%, the viability, T/C (second compound 0.1 µM, first compound 0.1 µM) was 92.3% and the viability, T/C [4] was 106%. It also gave a viability, T/C (second compound 0.1 µM, first compound 1 µM) of 102%, a viability, T/C (second compound 0.1 µM, first compound 3.16 µM) of 101% and a viability, T/C (second compound 0.1 µM, first compound 10 µM) of 95.6%. For the same compound, the viability, T/C [5] was 110%, the viability, T/C (second compound 0.316 µM, first compound 0.1 µM) was 101% and the viability, T/C [6] was 97.3%. It also gave a viability, T/C (second compound 0.316 µM, first compound 1 µM) of 98.2%, a viability, T/C (second compound 0.316 µM, first compound 3.16 µM) of 107% and a viability, T/C (second compound 0.316 µM, first compound 10 µM) of 103%. For the same compound, the viability, T/C [7] was 104%, the viability, T/C (second compound 1 µM, first compound 0.1 µM) was 90.7% and the viability, T/C [8] was 98.3%. It also gave a viability, T/C (second compound 1 µM, first compound 1 µM) of 96.1%, a viability, T/C (second compound 1 µM, first compound 3.16 µM) of 104% and a viability, T/C (second compound 1 µM, first compound 10 µM) of 101%. The viability, T/C [9] was 93.6%, the viability, T/C (second compound 3.16 µM, first compound 0.1 µM) was 94.6% and the viability, T/C [10] was 95.4%. For the same compound, the viability, T/C (second compound 3.16 µM, first compound 1 µM) was 95.6%, the viability, T/C (second compound 3.16 µM, first compound 3.16 µM) was 106% and the viability, T/C (second compound 3.16 µM, first compound 10 µM) was 93.9%. For the same compound, the viability, T/C [11] was 81%, the viability, T/C (second compound 10 µM, first compound 0.1 µM) was 86.6% and the viability, T/C [12] was 88.9%. It also gave a viability, T/C (second compound 10 µM, first compound 1 µM) of 78.8%, a viability, T/C (second compound 10 µM, first compound 3.16 µM) of 91.2% and a viability, T/C (second compound 10 µM, first compound 10 µM) of 85.8%.

`Cn1ncnc1[C@H]1c2n[nH]c(=O)c3cc(F)cc(c23)N[C@@H]1c1ccc(F)cc1` + CN(C)c1ccc(Nc2c3ccc(NC(=O)CCN4CCCC4)cc3nc3cc(NC(=O)CCN4CCCC4)ccc23)cc1 was tested, and the IC50 (second compound 0.0316 µM) was over 0.316 µM, the IC50 (second compound 0.1 µM) was over 0.316 µM and the IC50 (second compound 0.316 µM) was over 0.316 µM. For the same compound, the IC50 (second compound 1 µM) was over 0.316 µM, the IC50 (second compound 3.16 µM) was over 0.316 µM and the IC50 (second compound 10 µM) was over 0.316 µM. The viability, T/C (second compound 0.0316 µM, first compound 0.000999 µM) was 102%, the viability, T/C (second compound 0.0316 µM, first compound 0.00316 µM) was 92.9% and the viability, T/C (second compound 0.0316 µM, first compound 0.00999 µM) was 101%. It also gave a viability, T/C [1] of 103%, a viability, T/C (second compound 0.0316 µM, first compound 0.0999 µM) of 100% and a viability, T/C [2] of 93%. For the same compound, the viability, T/C (second compound 0.1 µM, first compound 0.000999 µM) was 112%, the viability, T/C (second compound 0.1 µM, first compound 0.00316 µM) was 89.1% and the viability, T/C (second compound 0.1 µM, first compound 0.00999 µM) was 95.7%. It also gave a viability, T/C [3] of 92.8%, a viability, T/C (second compound 0.1 µM, first compound 0.0999 µM) of 93.5% and a viability, T/C [4] of 97.5%. For the same compound, the viability, T/C (second compound 0.316 µM, first compound 0.000999 µM) was 88.2%, the viability, T/C (second compound 0.316 µM, first compound 0.00316 µM) was 95.8% and the viability, T/C (second compound 0.316 µM, first compound 0.00999 µM) was 99.5%. For the same compound, the viability, T/C [5] was 96.6%, the viability, T/C (second compound 0.316 µM, first compound 0.0999 µM) was 90.9% and the viability, T/C [6] was 91.2%. The viability, T/C (second compound 1 µM, first compound 0.000999 µM) was 105%, the viability, T/C (second compound 1 µM, first compound 0.00316 µM) was 97.8% and the viability, T/C (second compound 1 µM, first compound 0.00999 µM) was 91.5%. It also gave a viability, T/C [7] of 104%, a viability, T/C (second compound 1 µM, first compound 0.0999 µM) of 101% and a viability, T/C [8] of 87.3%. It also gave a viability, T/C (second compound 3.16 µM, first compound 0.000999 µM) of 99.6%, a viability, T/C (second compound 3.16 µM, first compound 0.00316 µM) of 94.7% and a viability, T/C (second compound 3.16 µM, first compound 0.00999 µM) of 88.8%. The viability, T/C [9] was 94.2%, the viability, T/C (second compound 3.16 µM, first compound 0.0999 µM) was 95% and the viability, T/C [10] was 93.4%. It also gave a viability, T/C (second compound 10 µM, first compound 0.000999 µM) of 93.3%, a viability, T/C (second compound 10 µM, first compound 0.00316 µM) of 89.8% and a viability, T/C (second compound 10 µM, first compound 0.00999 µM) of 77.3%. The viability, T/C [11] was 86.2%, the viability, T/C (second compound 10 µM, first compound 0.0999 µM) was 96.4% and the viability, T/C [12] was 90.1%.
